Reference: ChEMBL document CHEMBL1201862, “PubChem BioAssay data set” (2004)
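Where inhibition never reached the appropriate level, the endpoint shown equals the highest concentration tested. Otherwise, values were interpolated linearly from a five-concentration, 48-hour dose response in 96-well plates. Abbreviation: GI50, concentration required for 50% inhibition of growth.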 Calls of active or inactive are those of the source. Rule as the data show it: active = GI50 up to about 1.1 µM and inactive = higher.

How the values were obtained:
Assay in all cases: DTP human tumour cell line panel, 48 h
NCI-H226 = tested on: NCI-H226
LOX IMVI = tested on: LOX IMVI
SNB-19 = tested on: SNB-19
HL-60 = tested on: HL-60
SF-268 = tested on: SF-268
SF-539 = tested on: SF-539
CAKI-1 = tested on: CAKI-1
SK-OV-3 = tested on: SK-OV-3
RXF 393 = tested on: RXF 393
UACC-257 = tested on: UACC-257
SK-MEL-5 = tested on: SK-MEL-5
HCT-116 = tested on: HCT-116
SNB-75 = tested on: SNB-75
A498 = tested on: A498
MDA-MB-231 = tested on: MDA-MB-231
DU-145 = tested on: DU-145
MDA-MB-435 = tested on: MDA-MB-435
PC-3 = tested on: PC-3
NCI/ADR-RES = tested on: NCI/ADR-RES

Measured: GI50

CC(=O)ON(C(C)=O)C1C(COC(c2ccccc2)(c2ccccc2)c2ccccc2)OC2OC3(CCCC3)OC21 (stereo not drawn)
inactive: NCI-H226 9.16 µM | LOX IMVI 8.18 µM | SNB-19 5.38 µM | HL-60 3.32 µM | SF-268 10.5 µM | SF-539 > 100 µM | CAKI-1 > 100 µM | SK-OV-3 5.53 µM | RXF 393 4.44 µM | UACC-257 11.6 µM | SK-MEL-5 6.3 µM | HCT-116 5.45 µM | SNB-75 21.2 µM | A498 25.9 µM

O=[N+]([O-])c1cc([N+](=O)[O-])c(/C=C/c2ccc(Cl)c(Cl)c2)cc1/C=C/c1ccc(Cl)c(Cl)c1
inactive: NCI-H226 24.6 µM | LOX IMVI 23.7 µM | SNB-19 25.6 µM | HL-60 22.2 µM | SF-268 25.8 µM | SF-539 21.9 µM | CAKI-1 31.4 µM | SK-OV-3 64.6 µM | RXF 393 20.8 µM | UACC-257 23.4 µM | SK-MEL-5 18.9 µM | SNB-75 29 µM | A498 > 100 µM

CCOC(=O)C/C(N)=C(\C#N)C(=O)OCC
inactive: NCI-H226 > 100 µM | LOX IMVI > 100 µM | SNB-19 > 100 µM | HL-60 > 100 µM | SF-268 > 100 µM | SF-539 > 100 µM | CAKI-1 > 100 µM | SK-OV-3 > 100 µM | RXF 393 > 100 µM | SK-MEL-5 > 100 µM | HCT-116 > 100 µM | SNB-75 > 100 µM | A498 > 100 µM

COC(=O)[C@H](C)NC(=O)[C@H](CSC)N1C(=O)N[C@@H](C(C)C)C1=O
inactive: NCI-H226 > 100 µM | LOX IMVI > 100 µM | SNB-19 > 100 µM | MDA-MB-231 > 100 µM | DU-145 > 100 µM | SF-539 > 100 µM | CAKI-1 > 100 µM | MDA-MB-435 > 100 µM | PC-3 > 100 µM | SK-OV-3 > 100 µM | RXF 393 > 100 µM | UACC-257 > 100 µM | SK-MEL-5 > 100 µM | NCI/ADR-RES > 100 µM | HCT-116 > 100 µM | SNB-75 12.5 µM

CCc1cccc(C)c1NS(=O)(=O)c1ccccc1
inactive: NCI-H226 24.3 µM | HL-60 > 100 µM | SF-539 > 100 µM | CAKI-1 > 100 µM | SK-OV-3 > 100 µM | RXF 393 > 100 µM | UACC-257 > 100 µM | SK-MEL-5 > 100 µM | HCT-116 > 100 µM | SNB-75 > 100 µM | A498 > 100 µM

CCC(C)C(NC(=O)c1c2ccccc2nc2ccccc12)C(=O)O (stereo not drawn)
inactive: NCI-H226 > 100 µM | LOX IMVI 74 µM | SNB-19 > 100 µM | SF-268 > 100 µM | MDA-MB-231 > 100 µM | DU-145 > 100 µM | SF-539 60.7 µM | CAKI-1 > 100 µM | MDA-MB-435 79.1 µM | PC-3 > 100 µM | SK-OV-3 > 100 µM | UACC-257 > 100 µM | SK-MEL-5 60 µM | NCI/ADR-RES > 100 µM | HCT-116 > 100 µM | SNB-75 > 100 µM | A498 > 100 µM

C/C(=N/N)c1sc(-c2nc(C)c(/C(C)=N\N)s2)nc1C
inactive: NCI-H226 > 100 µM | LOX IMVI 39.5 µM | SNB-19 > 100 µM | HL-60 30.1 µM | SF-268 > 100 µM | SF-539 > 100 µM | CAKI-1 > 100 µM | SK-OV-3 > 100 µM | RXF 393 > 100 µM | UACC-257 > 100 µM | SK-MEL-5 > 100 µM | HCT-116 > 100 µM | SNB-75 > 100 µM | A498 > 100 µM

O=C1C=C(Nc2ccccc2C(=O)CC(=O)C(=O)Nc2ccc(Cl)cc2)c2ccccc2C1=O
inactive: NCI-H226 24.4 µM | LOX IMVI 1.93 µM | SNB-19 14 µM | HL-60 3.32 µM | SF-268 14.2 µM | SF-539 20.1 µM | CAKI-1 29.8 µM | SK-OV-3 26.2 µM | RXF 393 11.5 µM | UACC-257 8.83 µM | SK-MEL-5 4.32 µM | HCT-116 6.18 µM | SNB-75 17.1 µM | A498 > 100 µM

N#Cc1ccc(Sc2ccccc2)cc1C#N
inactive: NCI-H226 > 100 µM | LOX IMVI 19.9 µM | SNB-19 39.3 µM | HL-60 > 100 µM | SF-268 22.6 µM | SF-539 19.7 µM | CAKI-1 > 100 µM | SK-OV-3 54 µM | RXF 393 33 µM | UACC-257 > 100 µM | SK-MEL-5 > 100 µM | HCT-116 20.7 µM | SNB-75 21.7 µM | A498 > 100 µM

COc1ccc(C)cc(O)c1=O
inactive: NCI-H226 > 100 µM | LOX IMVI 11.9 µM | SNB-19 95.1 µM | HL-60 19.1 µM | SF-268 28.6 µM | SF-539 42.5 µM | CAKI-1 28.2 µM | SK-OV-3 > 100 µM | RXF 393 39.7 µM | UACC-257 33.2 µM | SK-MEL-5 67.8 µM | HCT-116 33.7 µM | SNB-75 > 100 µM | A498 38.4 µM

C/C(=N\NC(C)(C)C)c1sc(-c2nc(C)c(/C(C)=N/NC(C)(C)C)s2)nc1C
inactive: NCI-H226 > 100 µM | LOX IMVI > 100 µM | SNB-19 > 100 µM | HL-60 > 100 µM | SF-268 > 100 µM | SF-539 > 100 µM | CAKI-1 > 100 µM | SK-OV-3 > 100 µM | RXF 393 > 100 µM | UACC-257 > 100 µM | SK-MEL-5 > 100 µM | HCT-116 > 100 µM | SNB-75 8.32 µM | A498 > 100 µM

CN(c1ccccc1)C1C(=O)N(c2ccccc2)C1/C=C/c1ccccc1 (stereo not drawn)
inactive: NCI-H226 > 100 µM | SNB-19 > 100 µM | HL-60 > 100 µM | SF-268 > 100 µM | SF-539 > 100 µM | CAKI-1 > 100 µM | SK-OV-3 > 100 µM | RXF 393 > 100 µM | UACC-257 > 100 µM | SK-MEL-5 > 100 µM | HCT-116 > 100 µM | SNB-75 > 100 µM | A498 5.58 µM

COc1ccc2c(c1)C(=O)c1ccc(OC)cc1C2=S
inactive: NCI-H226 > 100 µM | LOX IMVI > 100 µM | SNB-19 > 100 µM | HL-60 40.1 µM | SF-268 81.5 µM | SF-539 > 100 µM | SK-OV-3 > 100 µM | RXF 393 > 100 µM | UACC-257 > 100 µM | SK-MEL-5 > 100 µM | HCT-116 > 100 µM | SNB-75 30.3 µM | A498 > 100 µM

Cc1cc(C)c(/C=N/NS(=O)(=O)c2ccccc2)c(C)c1
inactive: NCI-H226 > 100 µM | LOX IMVI > 100 µM | HL-60 91.6 µM | SF-268 > 100 µM | SF-539 66.8 µM | CAKI-1 76.6 µM | SK-OV-3 > 100 µM | RXF 393 44.9 µM | UACC-257 68.7 µM | SK-MEL-5 > 100 µM | HCT-116 > 100 µM | SNB-75 > 100 µM | A498 56.1 µM
